The record followed here is patent publication US20200069644A1, “NOVEL USE OF A FORMYL PEPTIDE RECEPTOR 2/ LIPOXIN A4 RECEPTOR (FPR2/ALX) AGONIST FOR TREATMENT OF HEART FAILURE” (BRISTOL- MYERS SQUIBB COMPANY, priority 2017, published 2020).

Molecules are shown by their SMILES.

Test [1] concerns myocardial infarction in mice. Kind of test: Mouse model of permanent coronary artery occlusion, 28 days. The format is in vivo. As to the method:
Permanent coronary artery occlusion was carried out in mice using a ligature placed around the left anterior descending artery to induce myocardial infarction. Treatment with orally-administered Compound 1 (0.3 and 3 mg/kg; QD) or dosing solution without compound (QD, referred to as vehicle) was initiated 24 hours following myocardial infarction. Mice subjected to thoracotomy but not infarcted were included as surgical “sham” controls. Mice were evaluated 28 days following myocardial infarction to assess structure/function relationships. Hearts were removed from mice for histological processing to measure left ventricular dimensions, infarct areas and infarct collagen composition.
The effect of Compound 1 on left ventricle and infarct scar remodeling was evaluated in a mouse model of permanent coronary artery occlusion. MI was created by permanently ligating the left anterior descending artery with a surgical suture. Treatments (QD, PO) were initiated 24 hours after MI and were continued for 28 days. Treatments consisted of suspension vehicle and Compound 1 at 0.3 mg/kg and 3 mg/kg. A cohort of mice that were subjected to the procedure but were not infarcted were included as a “sham operated” surgical control group. At the end of 28 days of treatment, the hearts were removed for histological evaluation of left ventricle structure and scar structure.
This is a model of ischemic heart disease. Infarct size was measured within the left ventricle (LV) and reported as a percentage of the total left ventricle cross sectional area.

In test [2] the test system is myocardial infarction in rats. Kind of test: Rat model of permanent coronary artery occlusion, 6 weeks. In kind it is in vivo. On the procedure:
In a second model of myocardial infarction, permanent coronary artery occlusion was carried out in rats using a ligature placed around the left anterior descending artery to induce myocardial infarction. Treatment with orally-administered Compound 1 (0.01, 0.1, 1, and 10 mg/kg, QD) or dosing solution without compound (QD, referred to as vehicle) was initiated 48 hours following myocardial infarction. Rats subjected to thoracotomy but not infarcted were included as surgical “sham” controls. Rats were evaluated 6 weeks following myocardial infarction to assess structure/function relationships. Hearts were removed from rats for histological processing to measure infarct wall thickness and collagen composition. Echocardiography was carried out to evaluate cardiac function.
The effects of Compound 1 on left ventricle and infarct scar remodeling were evaluated in a rat model of permanent coronary artery occlusion. […] In addition, the effect of Compound 1 on cardiac function was measured by echocardiography to assess structure/function relationships. The structure of the myocardial wall was measured histologically. […]
Echocardiography was used to measure cardiac function at the end of the treatment phase. The fraction of blood pumped out of the left ventricle per contraction cycle (i.e., ejection fraction) was determined using M-mode echocardiography. […]

The subject of test [3] is Mouse peritoneal macrophages. Kind of test: Enhancement of phagocytosis of FITC zymosan. To be noted: Peritoneal macrophage; mouse peritoneal macrophages elicited with 1% Biogel; read-out: EC50, enhancement of phagocytosis of fluorescently labeled zymosan. In kind it is cell-based. As to the method:
Enhancement of phagocytosis Macrophages were elicited to the peritoneum of five C57BL6 mice by peritoneal injection of 1 mL of 1% Biogel in PBS (−/−) 4 days prior to harvest. Peritoneal exudates are harvested, combined and then filtered to remove Biogel beads. First, through a 70 um cell strainer followed by successively filtering through two 40 um cell strainers. The exudate is diluted with 1×PBS (−/−) to 50 mL and centrifuged at 300×g for 10 minutes at 4° C. The cell pellet is gently resuspended in 20-30 mL 1×PBS(+/+) and cells are counted using the Nexelcom Cellometer counter. Cell concentration is adjusted to 1,250,000 cells/mL in 1×PBS (+/+). 100 μL (125 k) cells are placed into each well of a 96-well Costar 3904 plate. The plates are centrifuged at 150×g for 30 seconds to promote adherence. […] Fluorescence signal from non-ingested Zymosan particles is quenched with 150 uL ice-cold 1:15 diluted Trypan Blue solution for 2 minutes and then aspirated to remove. Lastly, the plate is read on a SpectraMAX Gemini EM fluorescence plate reader in 150 ul of 1:50 diluted Trypan Blue. Plate Reader Settings=Bottom Read: Excitation 493 nm: Emission 525 nm: Cutoff 515 nm: Automix Off: Calibrate On: PMT=Auto: Column Priority: Reads/Well=20. […]

Consider `COc1cc(F)c([C@@H]2CNC(=O)[C@H]2NC(=O)Nc2ccccc2)c(F)c1` [Compound 1, 1-((3S,4R)-4-(2,6-difluoro-4-methoxyphenyl)-2-oxopyrrolidin-3-yl)-3-phenylurea], for which the “infarct wall thickness, % of mean thickness of sham” value in test [1] (0.3 mg/kg PO QD, 28 days) amounted to 61%; in test [1] (3 mg/kg PO QD, 28 days) it was 67%. Further, the “reduction of LV chamber area vs. vehicle” value worked out at 26% in test [1] (0.3 mg/kg PO QD, 28 days) and 24% in test [1] (3 mg/kg PO QD, 28 days (trend)). In test [1] (3 mg/kg PO QD, 28 days, started 24 h after MI, P<0.01), the “reduction in LV anterior wall infarct size vs. vehicle” value amounted to 55%. In test [1] (higher dose (3 mg/kg) PO QD, 28 days, P<0.05), the “wall thickness difference vs. vehicle” value is given as 59%. Further, the contralateral wall thickness result in test [2] (0.01-10 mg/kg, between treatment groups or sham) is “No changes”. Also, the “transmural infarct wall thickness, increase relative to vehicle” value in test [2] (10 mg/kg PO QD, started 48 h after MI, P<0.01) is 96%. Further, in test [3], the concentration giving a half-maximal response (EC50) amounted to 2 nM.
